Measured values: US20140116103A1, “FOLIARLY APPLICABLE SILICON NUTRITION COMPOSITIONS & METHODS” (priority 2008, published 2014)

Columns and labels:
Bipolaris oryzae = assay type: in vivo, Bipolaris oryzae on rice; conditions: A, B, C, F compared to control, D compared to A
Description: The trial was arranged in a completely randomized design with five replications. Each experimental unit consisted of one plastic container with 5 liters of nutrient solution and four rice plants. The experiment was repeated once. Compositions A-F were applied to rice leaves as foliar sprays 24 hours before inoculation with the brown spot pathogen Bipolaris oryzae. Solutions of compositions A-D were prepared at 2% concentration. The fungicide (composition F) was prepared at 1.5 ml/liter concentration. Plants at the fifth leaf tiller growth stage were sprayed using a DeVilbiss No. 15 atomizer. The base of the plants was covered during spraying to prevent run-off of the sprayed materials into the nutrient solution.
A pathogenic isolate of B. oryzae (CNPAF-HO 82), obtained from symptomatic rice plants, was used to inoculate the plants. A conidial suspension of B. oryzae (5×10^3 conidia/ml) was applied as a fine mist to the adaxial leaf blades of each plant until runoff using a VL Airbrush atomizer (Paasche Airbrush Co., Chicago, Ill.). Immediately after inoculation, plants were transferred to a mist chamber at 25±2° C. with an initial 24 h dark period. […]
Brown spot severity on leaves of each plant was scored at 24, 48, 72 and 96 hours after inoculation using an International Rice Research Institute (IRRI) scale based on the percentage of diseased leaf area.

[1] = generally accepted limit; cited from earlier work

SMILES | necrotic lesions on leaves (number and size) (Bipolaris oryzae) | limit of solubility in water [1]
CC1COC(Cn2cncn2)(c2ccc(Oc3ccc(Cl)cc3)cc2Cl)O1 (centres unmarked) [Composition F, diphenoconazole] | complete absence of lesions | –
O[Si](O)(O)O [monosilicic acid] | – | about 2 mM
